# Starred links: 1 amine or outer side, 2 acyl side, 3 side chain; linkers in the order of their positions; H or OH if unused. Positions of bridges follow the written chain, without caps; N, C: chain ends. Non-standard residues stand in square brackets, D forms with d. Residues, ends and D or L forms follow the SMILES beside them. Groups on a side chain read outwards from the residue. Triazole bridges read from a SMILES are 1,4-linked. *: point of attachment. Lys(N3) = [N-]=[N+]=NCCCC[C@H](N)C(=O)O; γGlu = O=C(O)[C@H](CCC(=O)[*:2])N[*:1]; Palmitoyl = CCCCCCCCCCCCCCCC(=O)*; dPra = C#CC[C@@H](N)C(=O)O; Nle = CCCC[C@H](N)C(=O)O; Aib = CC(C)(N)C(=O)O
# How the values were obtained:
# [1] = molecular target: T1, human GCGR (Homo sapiens, UniProt P47871); assay: cAMP activity assay in cells expressing human GCGR; format: cell-based; details: ratio of human GCGR EC50 to human GLP1R EC50
# T1 construct: expressed in transfected cells; grown under Blasticidin and Hygromycin selection
# Protocol: (§1) Activity of the peptides at the Glucagon receptor (GCGR) and GLP-1 receptor (GLP1R) was measured in a cAMP activity assay.
# (§2) Peptides were dissolved in 100% DMSO and serially diluted to generate 10 point titrations. The peptide solutions were then transferred into 384-well assay plates (150 nL/well). Assay ready frozen cells expressing human GLP1R or human GCGR were suspended in growth media consisting of DMEM medium (GIBCO), 10% FBS (GIBCO), 1× NEAA(GIBCO), 1× P/S (GIBCO), 10 ug/ml Blasticidin (GIBCO) and 200 μg/mL Hygromycin (GIBCO). Cells were then diluted in assay buffer consisting of PBS (GIBCO), 7.5% BSA (Perkin Elmer), 100 μM RO 20-1724 (Sigma), with or without 20% human serum (MP Biomedical). The cell suspensions (15 μL) were then added to the assay plates containing the peptide solutions (30,000 cells/well for human GCGR; 10,000 cells/well for human GLP1R). The cells were incubated for 1 hour at room temperature in the dark. Production of cAMP was determined using HitHunter™ cAMPXS kits (DiscoverX) following manufacturer protocol. The plates were incubated for overnight at room temperature in the dark. Luminescence was measured using an EnVision Multilabel plate reader (Perkin Elmer). Native GLP-1 and Glucagon (Bachem) are used as control peptides. EC50 values were calculated using uses a 4 parameter logistic fit based on the Levenberg-Marquardt algorithm.
# [2] = molecular target: T2, human GLP1R (Homo sapiens, UniProt P43220); assay: cAMP activity assay in cells expressing human GLP1R; format: cell-based; details: cAMP production, HitHunter cAMPXS, 1 hour; assay buffer with or without 20% human serum (not given)
# T2 construct: expressed in transfected cells; grown under Blasticidin and Hygromycin selection
# Protocol: as §1, §2
# T1 sequence (P47871 26-477): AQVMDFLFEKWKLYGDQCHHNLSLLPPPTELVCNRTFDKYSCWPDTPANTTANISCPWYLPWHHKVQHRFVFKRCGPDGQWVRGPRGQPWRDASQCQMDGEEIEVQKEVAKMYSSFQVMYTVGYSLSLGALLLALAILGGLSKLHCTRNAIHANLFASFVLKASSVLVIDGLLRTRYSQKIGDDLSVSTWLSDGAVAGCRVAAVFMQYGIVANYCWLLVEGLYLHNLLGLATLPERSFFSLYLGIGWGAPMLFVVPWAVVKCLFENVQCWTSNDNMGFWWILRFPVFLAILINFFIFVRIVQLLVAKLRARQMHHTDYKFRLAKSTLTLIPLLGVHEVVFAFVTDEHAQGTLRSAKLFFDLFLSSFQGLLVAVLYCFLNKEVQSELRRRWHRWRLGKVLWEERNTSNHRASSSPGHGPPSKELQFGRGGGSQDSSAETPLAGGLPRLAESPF
# T2 sequence (P43220 24-463): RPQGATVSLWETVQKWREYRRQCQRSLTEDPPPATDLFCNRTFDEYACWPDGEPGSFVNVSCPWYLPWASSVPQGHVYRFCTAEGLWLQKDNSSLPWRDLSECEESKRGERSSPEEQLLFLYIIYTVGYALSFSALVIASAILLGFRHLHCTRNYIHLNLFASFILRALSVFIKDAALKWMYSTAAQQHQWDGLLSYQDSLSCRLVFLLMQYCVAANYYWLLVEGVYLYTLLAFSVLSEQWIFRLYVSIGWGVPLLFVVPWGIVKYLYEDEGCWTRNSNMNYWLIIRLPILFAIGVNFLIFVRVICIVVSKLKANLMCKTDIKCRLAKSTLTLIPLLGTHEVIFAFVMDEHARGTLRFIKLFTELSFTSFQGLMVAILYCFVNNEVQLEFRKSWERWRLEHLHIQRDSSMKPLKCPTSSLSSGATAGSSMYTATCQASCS
Structure (SMILES),hGCGR/hGLP1R (hTone) [1],EC50 [2]
CCCCCCCCCCCCCCCC(=O)N[C@@H](CCC(=O)N[C@@H](CCC(=O)NCCCC[C@H](NC(=O)[C@H](CC(=O)O)NC(=O)[C@H](CO)NC(=O)[C@@H](NC(=O)[C@H](Cc1ccccc1)NC(=O)[C@@H](NC(=O)CNC(=O)[C@H](CCC(N)=O)NC(=O)C(C)(C)NC(=O)[C@@H](N)Cc1c[nH]cn1)[C@@H](C)O)[C@@H](C)O)C(=O)N[C@@H](CO)C(=O)N[C@@H](CCCCN)C(=O)N[C@@H](Cc1ccc(O)cc1)C(=O)N[C@@H](CC(C)C)C(=O)N[C@@H](CC(=O)O)C(=O)NC(C)(C)C(=O)N[C@@H](CCCNC(=N)N)C(=O)N[C@@H](C)C(=O)N[C@@H](C)C(=O)N[C@@H]1Cc2cn(nn2)CCCC[C@@H](C(=O)N[C@@H](Cc2c[nH]c3ccccc23)C(=O)N[C@@H](CC(C)C)C(=O)N[C@@H](CCCC)C(=O)N[C@@H](CC(=O)O)C(=O)N[C@H](C(N)=O)[C@@H](C)O)NC(=O)[C@H](C(C)C)NC(=O)[C@H](Cc2ccccc2)NC(=O)[C@H](CC(=O)O)NC1=O)C(=O)O)C(=O)O [compound 17] (H-H[Aib]QGTFTSDK([γGlu-γGlu-Palmitoyl])SKYLD[Aib]RAA[dPra]DFV[Lys(N3)]WL[Nle]DT-NH2; triazole 20-24),2.25,
CCCCCCCCCCCCCCCC(=O)N[C@@H](CCC(=O)N[C@@H](CCC(=O)NCCCC[C@H](NC(=O)[C@H](CC(=O)O)NC(=O)[C@H](CO)NC(=O)[C@@H](NC(=O)[C@H](Cc1ccccc1)NC(=O)[C@@H](NC(=O)CNC(=O)[C@H](CCC(N)=O)NC(=O)C(C)(C)NC(=O)[C@@H](N)Cc1c[nH]cn1)[C@@H](C)O)[C@@H](C)O)C(=O)N[C@@H](CO)C(=O)N[C@@H](CCCCN)C(=O)N[C@@H](Cc1ccc(O)cc1)C(=O)N[C@@H](CC(C)C)C(=O)N[C@@H](CC(=O)O)C(=O)NC(C)(C)C(=O)N[C@@H](CCCNC(=N)N)C(=O)N[C@@H](C)C(=O)N[C@@H](C)C(=O)N[C@@H](CCC(N)=O)C(=O)N[C@@H](CC(=O)O)C(=O)N[C@@H](Cc1ccccc1)C(=O)N[C@H](C(=O)N[C@@H]1Cc2cn(nn2)CCCC[C@@H](C(=O)N[C@H](C(N)=O)[C@@H](C)O)NC(=O)[C@H](CCCC)NC(=O)[C@H](CC(C)C)NC(=O)[C@H](Cc2c[nH]c3ccccc23)NC1=O)C(C)C)C(=O)O)C(=O)O [compound 19],0.99,

# Other lines, results leading:
hGCGR/hGLP1R (hTone) [1],EC50 [2],Structure (SMILES)
1.13,0.042 nM,CCCCCCCCCCCCCCCC(=O)N[C@@H](CCC(=O)N[C@@H](CCC(=O)NCCCC[C@H](NC(=O)[C@H](CC(=O)O)NC(=O)[C@H](CO)NC(=O)[C@@H](NC(=O)[C@H](Cc1ccccc1)NC(=O)[C@@H](NC(=O)CNC(=O)[C@H](CCC(N)=O)NC(=O)C(C)(C)NC(=O)[C@@H](N)Cc1c[nH]cn1)[C@@H](C)O)[C@@H](C)O)C(=O)N[C@@H](CO)C(=O)N[C@@H](CCCCN)C(=O)N[C@@H](Cc1ccc(O)cc1)C(=O)N[C@@H](CC(C)C)C(=O)N[C@@H](CC(=O)O)C(=O)N[C@@H]1Cc2cn(nn2)CCCC[C@@H](C(=O)N[C@@H](CC(=O)O)C(=O)N[C@@H](Cc2ccccc2)C(=O)N[C@H](C(=O)N[C@@H](CCC(N)=O)C(=O)N[C@@H](Cc2c[nH]c3ccccc23)C(=O)N[C@@H](CC(C)C)C(=O)N[C@@H](CCCC)C(=O)N[C@@H](CC(=O)O)C(=O)N[C@H](C(N)=O)[C@@H](C)O)C(C)C)NC(=O)[C@H](C)NC(=O)[C@H](C)NC(=O)[C@H](CCCNC(=N)N)NC1=O)C(=O)O)C(=O)O [compound 16] (H-H[Aib]QGTFTSDK([γGlu-γGlu-Palmitoyl])SKYLD[dPra]RAA[Lys(N3)]DFVQWL[Nle]DT-NH2; triazole 16-20; N-terminus assumed)
0.95,0.042 nM,CCCCCCCCCCCCCCCC(=O)N[C@@H](CCC(=O)N[C@@H](CCC(=O)NCCCC[C@H](NC(=O)[C@H](CC(=O)O)NC(=O)[C@H](CO)NC(=O)[C@@H](NC(=O)[C@H](Cc1ccccc1)NC(=O)[C@@H](NC(=O)CNC(=O)[C@H](CCC(N)=O)NC(=O)[C@@H](CO)NC(=O)[C@@H](N)Cc1c[nH]cn1)[C@@H](C)O)[C@@H](C)O)C(=O)N[C@@H](CO)C(=O)N[C@@H](CCCCN)C(=O)N[C@@H](Cc1ccc(O)cc1)C(=O)N[C@@H](CC(C)C)C(=O)N[C@@H](CC(=O)O)C(=O)N[C@@H](CCC(=O)O)C(=O)N[C@@H](CCCNC(=N)N)C(=O)N[C@@H](C)C(=O)N[C@@H](C)C(=O)N[C@@H]1Cc2cn(nn2)CCCC[C@@H](C(=O)N[C@@H](Cc2c[nH]c3ccccc23)C(=O)N[C@@H](CC(C)C)C(=O)N[C@@H](CC(C)C)C(=O)N[C@@H](CC(=O)O)C(=O)N[C@H](C(N)=O)[C@@H](C)O)NC(=O)[C@H](C(C)C)NC(=O)[C@H](Cc2ccccc2)NC(=O)[C@H](CC(=O)O)NC1=O)C(=O)O)C(=O)O [compound 7] (H-H[dS]QGTFTSDK([γGlu-γGlu-Palmitoyl])SKYLDERAA[dPra]DFV[Lys(N3)]WLLDT-NH2; triazole 20-24)
0.5,,CCCCCCCCCCCCCCCC(=O)N[C@@H](CCC(=O)N[C@@H](CCC(=O)NCCCC[C@H](NC(=O)[C@H](CC(=O)O)NC(=O)[C@H](CO)NC(=O)[C@@H](NC(=O)[C@H](Cc1ccccc1)NC(=O)[C@@H](NC(=O)CNC(=O)[C@H](CCC(N)=O)NC(=O)[C@@H](CO)NC(=O)[C@@H](N)Cc1c[nH]cn1)[C@@H](C)O)[C@@H](C)O)C(=O)N[C@@H](CO)C(=O)N[C@@H](CCCCN)C(=O)N[C@@H](Cc1ccc(O)cc1)C(=O)N[C@@H](CC(C)C)C(=O)N[C@@H](CC(=O)O)C(=O)N[C@@H](C)C(=O)N[C@@H]1Cc2cn(nn2)CCCC[C@@H](C(=O)N[C@@H](Cc2ccccc2)C(=O)N[C@H](C(=O)N[C@@H](CCC(N)=O)C(=O)N[C@@H](Cc2c[nH]c3ccccc23)C(=O)N[C@@H](CC(C)C)C(=O)N[C@@H](CC(C)C)C(=O)N[C@@H](CC(=O)O)C(=O)N[C@H](C(N)=O)[C@@H](C)O)C(C)C)NC(=O)[C@H](CCC(N)=O)NC(=O)[C@H](C)NC(=O)[C@H](C)NC1=O)C(=O)O)C(=O)O [compound 14] (H-H[dS]QGTFTSDK([γGlu-γGlu-Palmitoyl])SKYLDA[dPra]AAQ[Lys(N3)]FVQWLLDT-NH2; triazole 17-21)
1.96,,CCCCCCCCCCCCCCCC(=O)N[C@@H](CCC(=O)N[C@@H](CCC(=O)NCCCC[C@H](NC(=O)[C@H](CC(=O)O)NC(=O)[C@H](CO)NC(=O)[C@@H](NC(=O)[C@H](Cc1ccccc1)NC(=O)[C@@H](NC(=O)CNC(=O)[C@H](CCC(N)=O)NC(=O)C(C)(C)NC(=O)[C@@H](N)Cc1c[nH]cn1)[C@@H](C)O)[C@@H](C)O)C(=O)N[C@@H](CO)C(=O)N[C@@H](CCCCN)C(=O)N[C@@H](Cc1ccc(O)cc1)C(=O)N[C@@H](CC(C)C)C(=O)N[C@@H](CC(=O)O)C(=O)NC(C)(C)C(=O)N[C@@H]1Cc2cn(nn2)CCCC[C@@H](C(=O)N[C@@H](Cc2ccccc2)C(=O)N[C@H](C(=O)N[C@@H](CCC(N)=O)C(=O)N[C@@H](Cc2c[nH]c3ccccc23)C(=O)N[C@@H](CC(C)C)C(=O)N[C@@H](CCCC)C(=O)N[C@@H](CC(=O)O)C(=O)N[C@H](C(N)=O)[C@@H](C)O)C(C)C)NC(=O)[C@H](CCC(N)=O)NC(=O)[C@H](C)NC(=O)[C@H](C)NC1=O)C(=O)O)C(=O)O [compound 18] (H-H[Aib]QGTFTSDK([γGlu-γGlu-Palmitoyl])SKYLD[Aib][dPra]AAQ[Lys(N3)]FVQWL[Nle]DT-NH2; triazole 17-21)
